Assay results from patent publication EP1923473B1, “Bis-diglycolamides (BISDGA) as new extractants for lanthanides [Ln(III)] and actinides [An(III)] from aqueous high-level wastes” (Universidad Autónoma de Madrid, priority 2006, dated 2008).

Experiments:
Type in all cases: physicochemical
[1] = Batch extraction from simulated HLLW from the PUREX process, alpha spectrometry; settings: 0.1 mol/L in TPH/1-octanol (90:10)
Description: The feed solution used for the extraction tests is a simulated solution of an HLLW from the PUREX process, the composition of which is shown in Table 4. Table 4: Composition of the simulated HLLW-PUREX solution used for the extraction tests
The composition of the HLLW corresponds to a burn-up of 33 GWd/tHM, the generated volume of HLLW being 5000 1/t of fuel. The feed was spiked with ^241Am, ^244Cm, ^252Cf and ^152Eu. Oxalic acid and N-(2-hydroxyethyl)ethylenediaminotriacetate (HEDTA) were also added before the extraction tests.
500 µL of the aqueous and organic phases were spiked with 10 µL of a tracer solution containing 241Am, 244Cm, 252Cf and ^152Eu, and were equilibrated for 10 minutes while they were stirred vigorously in a vortex stirrer. After the separation of the phases by centrifugation, 200 µL aliquots of each phase were taken for the determination of the concentration of ^241Am and ^152Eu using a high-purity germanium spectrometer system (EG&G Ortec). The nuclides ^241Am, ^244Cm and ^252Cf were measured by alpha spectrometry with an α-Analyst device of the company Canberra-Packard GmbH, Germany.
The concentrations of the stable elements were determined by mass spectrometry with an inductively coupled plasma source (ICP-MS) in a DRC Elan 6100 device of Perkin Elmer Sciex. The aqueous phase was measured directly after the appropriate dilution. The organic phase was analyzed after having mineralized the organic matter by microwave acid digestion and subsequent dilution.
The distribution coefficients were calculated for each element according to section C).
A 0.1 mol/L solution of compound 4 in the "TPH/1-octanol (90:10)%vol" mixture was prepared. Extraction experiments were carried out with said simulated HLLW in a pure form and also adding oxalic acid and HEDTA to it. These complexing agents have shown to be effective in the DIAMEX process for the complexing of Mo, Zr (H2C2O4) and Pd (HEDTA).
Extraction experiments were carried out with said simulated HLLW in a pure form and also adding oxalic acid and HEDTA to it.

[2] = Re-extraction with diluted nitric acid solutions; settings: 0.1 mol/L in TPH/1-octanol (95:5)%vol; for re-extraction steps necessary: 0.016 mol/L of stable Eu(III) present
Experimental: 0.1 mol/L samples of compound 4 in a "TPH/1-octanol (95:5)%vol" mixture were prepared. Extractions of Am(III) and Eu(III) were carried out from 3 mol/L nitric acid solutions containing only the radionuclides ^152Eu and ^241Am and 3 mol/L nitric acid solutions containing the radionuclides ^152Eu and ^241Am and 0.016 mol/L of stable Eu(III), simulating the total concentration of Ln(III) in a HLLW from the PUREX process. Once the extraction process was carried out, a washing step with a 1 mol/L nitric acid solution was carried out. Then, different re-extraction steps were carried out with 0.01 mol/L nitric acid solutions, simulating a continuous process. The evolution of the concentration of Am(III) and Eu(III) in the organic phase in the different extraction, scrubbing and re-extraction steps is shown in Figure 14.
Nevertheless, it is possible to regenerate the organic solutions of compound 18 for subsequent extraction cycles in an industrial continuous process.

Hydrolytic stability = settings: 0.1 mol/L in n-dodecane/1-octanol (95:5)%vol; permanent contact with 3 mol/L nitric acid
Experimental: The organic solutions of the compounds to be tested were prepared and equilibrated with 3 mol/L nitric acid, as has been indicated in sections A) and B).
Then, 700 µL of the equilibrated organic phase were put in vials of an approximate volume of 2 mL and were contacted with 700 µL of 3 mol/L nitric acid. They were stirred vigorously in an oscillating shaker for periods of 7, 15, 24, 36, 42, 50 and 66 days. After each permanent contact period with the nitric acid aqueous phase, the extraction capability of the organic solution was evaluated, taking 600 µL of the corresponding organic phase and contacting it with 600 µL of aqueous phase formed by a 3 mol/L nitric acid solution spiked with 600 Bq of ^152Eu and with 600 Bq of ^241Am. It was stirred vigorously by means of an oscillating shaker for 15 minutes. The separation of the phases was carried out by centrifugation at 5000 rpm. 400 µL of each of the phases were taken for the determination of the concentration of ^152Eu and ^241Am, as in section C).
After the permanent contact periods with the 3 mol/L nitric acid solution, the extraction capability of the organic solutions of both compounds was evaluated with 3 mol/L nitric acid solutions containing 600 Bq of ^152 Eu and 600 Bq of ^241Am.

[3] = Radiolytic stability, extraction capability after irradiation; settings: for DEu / DAm: after 1000 kGy
Experimental: The tests of stability against irradiation were carried out in the NAYADE facility at CIEMAT site, with external ^60Co sources with an approximate activity of 5000 Ci, with a homogeneous irradiation flux. The dose rate applied in all the experiments was 4 kGy/h and integrated doses of 250 kGy, 500 kGy, 750 kGy and 1000 kGy were considered. The irradiation device consists of a metal cylinder which is introduced in a rack wherein the ^60CO sources are placed radially, such that the irradiation is homogeneous. The irradiation process is carried out submersing the device in a pool of water with a depth of 4 meters.
Irradiation tests of the solid compound (in the absence of solvent) and of the compound dissolved in the "n-dodecane/1-octanol (95:5)%vol" mixture, equilibrated with 3 mol/L nitric acid, were carried out. The organic solutions were prepared and equilibrated as detailed in the previous sections A) and B).
Once each programmed integrated dose was reached, the extraction capability of the organic samples was evaluated as detailed in section C).
The irradiation of compound 4 in solid form (in the absence of solvent) and dissolved at a 0.1 mol/L concentration in the "n-dodecane/1-octanol 1 (95:5)%vol" mixture, equilibrated with 3 mol/L nitric acid, was carried out. The applied dose rate was 4 kGy/h and the considered integrated doses were 250 kGy, 500 kGy, 750 kGy and 1000 kGy. After each integrated dose, the extraction capability of Am(III) and Eu(III) was evaluated as described in section C.
The considered integrated doses in this experiment were 500 kGy and 1000 kGy at a dose rate of 4 kGy/h.

[4] = Oxalic acid 0.2 mol/L, HEDTA 0.05 mol/L, TBP 0.5 mol/L
[5] = Oxalic acid 0.2 mol/L, HEDTA 0.05 mol/L, TBP No
[6] = Oxalic acid 0.3 mol/L, HEDTA 0.05 mol/L, TBP 0.5 mol/L
[7] = Oxalic acid 0.3 mol/L, HEDTA 0.05 mol/L, TBP No
[8] = Oxalic acid No, HEDTA No, TBP 0.5 mol/L
[9] = Oxalic acid No, HEDTA No, TBP No
[10] = irradiated dissolved in n-dodecane/1-octanol (95:5)%vol, equilibrated with 3 mol/L nitric acid
[11] = irradiated in the absence of solvent

| Substance | Distribution coefficients Am-241, α [1, 4] | Distribution coefficients Am-241, α [1, 5] | Distribution coefficients Am-241, α [1, 6] | Distribution coefficients Am-241, α [1, 7] | Distribution coefficients Am-241, α [1, 8] | Distribution coefficients Am-241, α [1, 9] | re-extraction steps necessary ([2]; 0.01 mol/L nitric acid) | re-extraction steps for complete re-extraction ([2]; only the radionuclides 152Eu and 241Am present, 0.01 mol/L nitric acid) | stability against hydrolysis (Hydrolytic stability) | DEu [3, 10] | Dn ([3]; up to 1000 kGy, irradiated dissolved in n-dodecane/1-octanol (95:5)%vol, equilibrated with 3 mol/L nitric acid) | Am(III) and Eu(III) recovered from the organic phase ([2]; tracers only (152Eu and 241Am), after three re-extraction steps with 0.01 mol/L nitric acid) | DAm [3, 10] | DAm [3, 11] | DEu [3, 11] |
| --- | --- | --- | --- | --- | --- | --- | --- | --- | --- | --- | --- | --- | --- | --- | --- |
| 2-Dioctylcarbamoylmethoxy-N-[3-[3-(2-dioctylcarbamoyl-methoxyacetylamino)propoxy]propyl]acetamide [Compound 18] | 55 | 46 | 90 | 87 | 56 | 96 | six re-extraction steps | four re-extraction steps | very stable against hydrolysis | 964 | 531 |  |  |  |  |
| 2-Dioctylcarbamoylmethoxy-N-[3-[(2-dioctylcarbamoyl-methoxy-acetylamino)methyl]benzyl]acetamide [Compound 4] | 52 | 158 | 83 | 164 | 58 | 112 | an additional re-extraction step is necessary |  | very stable against hydrolysis | 780 |  | more than 99.9% | 180 | 540 | 1000 |
